Results: patent US20220331318A1, “USE OF AN MDM2 INHIBITOR FOR THE TREATMENT OF MYELOFIBROSIS” (Novartis AG, priority 2019, published 2022)

Tests used:
[1] = system: other major CYP enzymes or transporters; settings: cited from earlier work
JAK3 = JAK3 (Homo sapiens, UniProt P52333); settings: at clinically relevant concentrations; cited from earlier work
[2] = system: broad panel of 26 kinases; settings: tested at 200 nM; cited from earlier work
[3] = Preliminary PK analysis, Phase I/II study of ruxolitinib with siremadlin in myelofibrosis patients; assay type: in vivo, human; settings: for Exposure compared with historical single-agent data: combination of ruxolitinib and siremadlin 20 mg QD
From the text: (§1) A Randomized, Open-Label, Phase I/II Open Platform Study Evaluating Safety and Efficacy of Novel Ruxolitinib Combination in Myelofibrosis Patients
(§2) The purpose of this study is to investigate the safety, pharmacokinetics and preliminary efficacy of combination treatment of ruxolitinib with siremadlin in MF subjects. The study consists of three parts:
Dose reductions/interruptions were not taken into consideration for this preliminary PK analysis. Nominal times were used.
This study was not specifically designed to investigate the potential for PK drug interactions, however comparative assessment of historical data has been done. A PK DDI between ruxolitinib and siremadlin is unlikely or predicted to be low, based on PBPK analysis.

BCRP = target: T1, BCRP (Homo sapiens, UniProt Q9UNQ0); test: BCRP substrate assessment in vitro; assay type: in vitro ADME
T1 sequence (Q9UNQ0 1-655): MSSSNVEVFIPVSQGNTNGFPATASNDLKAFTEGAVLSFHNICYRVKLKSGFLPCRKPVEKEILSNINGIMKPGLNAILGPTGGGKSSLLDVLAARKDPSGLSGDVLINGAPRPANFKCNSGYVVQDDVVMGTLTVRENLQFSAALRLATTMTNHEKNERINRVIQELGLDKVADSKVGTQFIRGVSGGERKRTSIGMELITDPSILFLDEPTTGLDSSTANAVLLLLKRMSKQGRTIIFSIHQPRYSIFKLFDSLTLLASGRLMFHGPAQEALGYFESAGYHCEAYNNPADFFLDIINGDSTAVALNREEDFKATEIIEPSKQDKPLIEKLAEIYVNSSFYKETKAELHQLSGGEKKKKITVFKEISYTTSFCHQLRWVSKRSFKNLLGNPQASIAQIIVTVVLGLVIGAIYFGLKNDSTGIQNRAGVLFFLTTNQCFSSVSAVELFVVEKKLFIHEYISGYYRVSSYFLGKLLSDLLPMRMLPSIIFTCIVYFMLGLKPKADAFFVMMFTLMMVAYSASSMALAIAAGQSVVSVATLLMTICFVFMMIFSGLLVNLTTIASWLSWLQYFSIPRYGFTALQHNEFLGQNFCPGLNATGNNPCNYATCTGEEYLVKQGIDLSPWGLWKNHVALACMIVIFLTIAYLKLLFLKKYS

CYP3A4/5 [4] = test: CYP3A4/5 induction in vitro; assay type: in vitro ADME; settings: net effect anticipated rather as an inhibitor than an inducer
[5] = system: solid and hematological tumors; settings: preclinical and clinical PK/PD modeling (Guerreiro et al 2018, Meille et al 2017); cited from earlier work
myelofibrosis patients = test: Safety (DLTs, SAEs), cohort 1 of Phase I/II study of siremadlin in combination with ruxolitinib in myelofibrosis patients; assay type: in vivo, human; settings: 7 patients, cohort 1, 20 mg Siremadlin in combination with Ruxolitinib
From the text: as §1, §2
Incidence and severity of dose limiting toxicity (DLTs) within the first 2 treatment cycles in Part 1 of the study
1 patient potentially not evaluable due to Siremadlin interruption within first 2 cycles of treatment. PK DDI between ruxolitinib and Siremadlin is unlikely or predicted to be low, based on PBPK analysis. As per statistical model the dose of Siremadlin can be increased to 30 mg or 40 mg D1-D5 in the next cohort.

CYP3A4 = CYP3A4 (Homo sapiens, UniProt P08684); test: Metabolism by CYP enzymes; assay type: in vitro ADME; settings: siremadlin
Sequence of CYP3A4 (P08684 whole entry): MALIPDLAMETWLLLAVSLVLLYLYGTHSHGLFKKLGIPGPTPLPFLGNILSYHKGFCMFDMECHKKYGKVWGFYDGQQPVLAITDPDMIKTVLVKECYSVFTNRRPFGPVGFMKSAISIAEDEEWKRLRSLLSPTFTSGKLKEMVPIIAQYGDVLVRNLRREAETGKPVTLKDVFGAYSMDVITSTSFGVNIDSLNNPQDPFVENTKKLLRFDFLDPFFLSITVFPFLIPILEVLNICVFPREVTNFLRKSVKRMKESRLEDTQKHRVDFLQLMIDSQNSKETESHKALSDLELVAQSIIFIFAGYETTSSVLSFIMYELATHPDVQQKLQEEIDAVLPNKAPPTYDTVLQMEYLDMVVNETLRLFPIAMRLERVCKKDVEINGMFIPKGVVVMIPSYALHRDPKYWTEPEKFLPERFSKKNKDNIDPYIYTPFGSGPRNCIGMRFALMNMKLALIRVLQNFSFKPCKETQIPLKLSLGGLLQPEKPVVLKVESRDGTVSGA

AML subjects = test: Phase I study HDM201X2101, single-agent siremadlin in solid tumors or hematologic malignancies (R/R AML); assay type: in vivo, human
From the text: In this study, the selection of the siremadlin dose and regimen is based on the currently available preclinical and clinical safety, efficacy, PK and PK/PD modeling information from the phase I study HDM201X2101, a dose escalation and expansion study of single-agent siremadlin in patients with solid tumors or hematologic malignancies (R/R AML). At the time of data cut-off (15 Jan. 2018), 199 subjects have been treated applying various dosing regimens: 115 subjects with solid and 84 patients with hematological tumors. Safety and efficacy data from this trial in AML subjects was used to determine a recommended Phase 2 dose regimen of 45 mg once a day (QD) from day 1 to day 7 of a 28-day cycle (regimen 2C) which is disclosed in WO/2018/178925 (incorporated herewith by reference), At this dose regimen, Complete Response/Complete Response with incomplete blood count recovery (CR/CRi) were respectively 2/4 subjects out of 24 (25%).

P-gp = P-gp (Homo sapiens, UniProt P08183); test: P-gp substrate assessment in vitro; assay type: in vitro ADME
Sequence of P-gp (P08183 whole entry): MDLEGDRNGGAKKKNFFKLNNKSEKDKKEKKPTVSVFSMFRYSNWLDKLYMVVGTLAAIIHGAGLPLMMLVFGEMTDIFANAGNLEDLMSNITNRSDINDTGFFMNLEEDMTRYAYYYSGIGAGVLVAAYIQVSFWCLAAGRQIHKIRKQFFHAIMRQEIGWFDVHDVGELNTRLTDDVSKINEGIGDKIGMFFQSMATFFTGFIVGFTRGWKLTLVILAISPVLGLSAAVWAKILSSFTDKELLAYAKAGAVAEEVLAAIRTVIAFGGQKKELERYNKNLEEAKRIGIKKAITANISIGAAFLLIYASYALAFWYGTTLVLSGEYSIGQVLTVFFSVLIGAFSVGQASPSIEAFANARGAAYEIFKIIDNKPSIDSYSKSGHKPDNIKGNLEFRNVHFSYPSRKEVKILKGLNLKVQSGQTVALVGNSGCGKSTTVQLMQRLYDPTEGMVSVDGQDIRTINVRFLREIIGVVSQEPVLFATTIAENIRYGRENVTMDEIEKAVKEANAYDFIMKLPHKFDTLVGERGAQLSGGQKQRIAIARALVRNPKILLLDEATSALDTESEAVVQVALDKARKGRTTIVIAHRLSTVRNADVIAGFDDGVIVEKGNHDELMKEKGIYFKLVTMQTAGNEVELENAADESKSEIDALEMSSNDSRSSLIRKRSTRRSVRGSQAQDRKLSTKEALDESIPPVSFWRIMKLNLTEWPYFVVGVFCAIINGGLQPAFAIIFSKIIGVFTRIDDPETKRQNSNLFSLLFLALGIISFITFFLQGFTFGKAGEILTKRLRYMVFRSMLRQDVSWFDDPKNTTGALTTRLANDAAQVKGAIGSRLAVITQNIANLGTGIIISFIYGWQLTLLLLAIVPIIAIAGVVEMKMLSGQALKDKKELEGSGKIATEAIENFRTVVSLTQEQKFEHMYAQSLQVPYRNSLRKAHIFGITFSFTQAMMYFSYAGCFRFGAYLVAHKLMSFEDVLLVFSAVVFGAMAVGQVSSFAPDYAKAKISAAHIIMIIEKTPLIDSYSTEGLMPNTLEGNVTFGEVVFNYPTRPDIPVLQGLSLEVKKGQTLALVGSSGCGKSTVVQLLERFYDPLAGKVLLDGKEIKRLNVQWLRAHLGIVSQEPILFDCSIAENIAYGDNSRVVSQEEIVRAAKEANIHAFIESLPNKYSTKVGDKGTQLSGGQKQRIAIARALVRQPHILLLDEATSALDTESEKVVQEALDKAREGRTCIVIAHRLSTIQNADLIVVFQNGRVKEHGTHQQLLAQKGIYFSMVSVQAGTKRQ

CYP3A4/5 [6] = test: CYP3A4/5 inhibition in vitro; assay type: in vitro ADME
[7] = AML, 45 mg QD day 1 to day 7 of a 28-day cycle (regimen 2C)

Sequence of JAK3 (P52333 whole entry): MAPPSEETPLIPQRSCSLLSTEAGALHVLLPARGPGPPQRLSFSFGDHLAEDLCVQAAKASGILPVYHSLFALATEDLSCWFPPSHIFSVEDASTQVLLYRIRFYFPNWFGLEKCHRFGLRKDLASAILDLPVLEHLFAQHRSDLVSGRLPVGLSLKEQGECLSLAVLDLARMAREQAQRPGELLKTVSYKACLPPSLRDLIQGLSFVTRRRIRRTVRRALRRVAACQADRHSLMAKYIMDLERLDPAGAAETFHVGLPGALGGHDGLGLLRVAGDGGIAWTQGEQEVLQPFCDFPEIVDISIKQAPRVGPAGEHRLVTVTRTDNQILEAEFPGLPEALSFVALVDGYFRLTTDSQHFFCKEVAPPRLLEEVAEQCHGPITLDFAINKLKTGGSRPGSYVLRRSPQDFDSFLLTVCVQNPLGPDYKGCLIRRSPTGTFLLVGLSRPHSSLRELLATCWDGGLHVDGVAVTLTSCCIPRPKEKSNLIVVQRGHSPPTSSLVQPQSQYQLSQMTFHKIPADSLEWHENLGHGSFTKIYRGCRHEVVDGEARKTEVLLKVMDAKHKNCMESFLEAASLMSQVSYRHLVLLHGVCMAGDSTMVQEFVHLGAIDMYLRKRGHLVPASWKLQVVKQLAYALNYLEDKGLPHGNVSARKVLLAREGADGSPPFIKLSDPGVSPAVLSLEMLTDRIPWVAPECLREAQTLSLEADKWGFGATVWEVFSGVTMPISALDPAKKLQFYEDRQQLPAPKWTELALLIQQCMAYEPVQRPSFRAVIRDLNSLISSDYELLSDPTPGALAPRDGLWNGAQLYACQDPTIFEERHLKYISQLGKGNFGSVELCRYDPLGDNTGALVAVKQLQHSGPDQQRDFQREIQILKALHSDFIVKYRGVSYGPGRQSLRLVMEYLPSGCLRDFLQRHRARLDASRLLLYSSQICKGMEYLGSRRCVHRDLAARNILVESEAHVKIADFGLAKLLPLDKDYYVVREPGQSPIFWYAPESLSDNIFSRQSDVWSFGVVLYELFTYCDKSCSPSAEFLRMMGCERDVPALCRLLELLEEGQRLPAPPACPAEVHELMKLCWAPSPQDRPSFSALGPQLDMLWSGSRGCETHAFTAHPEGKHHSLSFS

Row | BCRP substrate (BCRP) | induction of CYP3A4/5 (CYP3A4/5 [4]) | metabolizing enzyme (CYP3A4) | P-gp substrate (P-gp) | Structure (SMILES) | capacity to inhibit other major CYP enzymes or transporters [1] | inhibition of JAK3 (JAK3) | inhibition of a broad panel of 26 kinases [2] | Exposure compared with historical single-agent data ([3]; MF patients) | accumulation upon repeated dosing ([3]; MF patients, ruxolitinib 10, 15 or 20 mg BID with siremadlin) | half-life ([3]; human, in vivo, oral, 20 mg) | anti-tumor activity on reducing application from 7 to 5 consecutive days per 28-day cycle [5] | DLTs (myelofibrosis patients) | on treatment SAEs (myelofibrosis patients) | Complete Response (CR) (AML subjects; [7]) | Complete Response with incomplete blood count recovery (CRi) (AML subjects; [7]) | CR/CRi rate (AML subjects; AML, 45 mg QD day 1 to day 7 of a 28-day cycle (regimen 2C), 24 subjects) | dose-limiting toxicity (DLT) (AML subjects; hematological tumor patients, regimen 2C) | severity of adverse events (AML subjects; hematological tumor patients, regimen 2C, cytopenias most commonly observed) | most frequently reported adverse drug reactions in clinic (AML subjects; single agent) | inhibition of CYP3A4/5 (CYP3A4/5 [6])
1 | – | – | – | – | N#CC[C@H](C1CCCC1)n1cc(-c2ncnc3[nH]ccc23)cn1 [ruxolitinib, (R)-3-(4-(7H-pyrrolo[2,3-d]pyrimidin-4-yl)-1H-pyrazol-1-yl)-3-cyclopentylpropanenitrile] | little or no capacity to inhibit | does not inhibit | < 30% | within the exposure range of values observed previously | little accumulation | 3 to 4 h | – | – | – | – | – | – | – | – | – | –
2 | substrate | inducer | predominantly metabolized by CYP3A4 | substrate | COc1ncc(-c2nc3c(n2C(C)C)[C@H](c2ccc(Cl)cc2)N(c2cc(Cl)cn(C)c2=O)C3=O)c(OC)n1 [siremadlin, (S)-5-(5-Chloro-1-methyl-2-oxo-1,2-dihydro-pyridin-3-yl)-6-(4-chloro-phenyl)-2-(2,4-dimethoxy-pyrimidin-5-yl)-1-isopropyl-5,6-dihydro-1H-pyrrolo[3,4-d]imidazol-4-one] | – | – | – | comparable to exposures observed previously | – | – | maintains equivalent anti-tumor activity | no DLTs | no on treatment SAEs | 2 subjects out of 24 | 4 subjects out of 24 | 25% | tumor lysis syndrome (TLS) | mild to moderate in severity, reversible and manageable | hematological toxicities including thrombocytopenia, neutropenia and anemia | time-dependent inhibitor and a reversible inhibitor
